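These data come from cells grown in 96-well plates and exposed to compound for 48 hours at five concentrations. GI50 is the concentration that inhibits growth by half.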 Calls of active or inactive are those of the source. Rule as the data show it: active = GI50 up to about 1.1 µM and inactive = higher. Where a SMILES comes first, the peptide text is derived from it. The star is where a group is joined. Boc = CC(C)(C)OC(=O)*; Bn = c1ccc(C*)cc1
Key:
Test in all cases: NCI-60 cell line screen, 48 h
[1] = tested on: 786-0
[2] = tested on: BT-549
[3] = tested on: DU-145
[4] = tested on: KM12
[5] = tested on: MDA-MB-231
[6] = tested on: MDA-MB-435
[7] = tested on: MDA-N
[8] = tested on: Malme-3M
[9] = tested on: NCI-H226
[10] = tested on: NCI/ADR-RES
[11] = tested on: RPMI-8226
[12] = tested on: SF-539
[13] = tested on: SN12C
[14] = tested on: UACC-257
[15] = tested on: UACC-62
[16] = tested on: CCRF-CEM
[17] = tested on: EKVX
[18] = tested on: HL-60
[19] = tested on: IGROV-1
[20] = tested on: K562

| SMILES | GI50 [1] | GI50 [2] | GI50 [3] | GI50 [4] | GI50 [5] | GI50 [6] | GI50 [7] | GI50 [8] | GI50 [9] | GI50 [10] | GI50 [11] | GI50 [12] | GI50 [13] | GI50 [14] | GI50 [15] | GI50 [16] | GI50 [17] | GI50 [18] | GI50 [19] | GI50 [20] |
| --- | --- | --- | --- | --- | --- | --- | --- | --- | --- | --- | --- | --- | --- | --- | --- | --- | --- | --- | --- | --- |
| CN(C)/C=C/c1nnc([N+](=O)[O-])s1 | 11.3 µM (inactive) | 17.9 µM (inactive) | 15.2 µM (inactive) | 7.73 µM (inactive) | 18.2 µM (inactive) | 3.69 µM (inactive) | 4.28 µM (inactive) | 4.22 µM (inactive) | 20.5 µM (inactive) | 16.5 µM (inactive) | < 0.01 µM (active) | 8.79 µM (inactive) | 18.8 µM (inactive) | 14.2 µM (inactive) | 16.4 µM (inactive) | – | – | – | – | – |
| OC1(c2ccccc2)CSC2=Nc3ccccc3C3CCN1N23 (stereo unspecified) | 18.7 µM (inactive) | 23.1 µM (inactive) | 15.6 µM (inactive) | 16.7 µM (inactive) | 15.5 µM (inactive) | 17 µM (inactive) | 14.1 µM (inactive) | 22.4 µM (inactive) | 38.1 µM (inactive) | 18.5 µM (inactive) | – | 16.9 µM (inactive) | 23.5 µM (inactive) | 23.4 µM (inactive) | 18.7 µM (inactive) | 26.2 µM (inactive) | 3.89 µM (inactive) | 30.1 µM (inactive) | 13.3 µM (inactive) | 38.6 µM (inactive) |
| CCn1cc(C(=O)O)c(=O)c2cc(F)c(N3CCN(CN4C(=O)/C(=N\NC(=O)c5ccncc5)c5cc(Cl)ccc54)CC3)cc21 | 38.6 µM (inactive) | 91.6 µM (inactive) | 24 µM (inactive) | 40.3 µM (inactive) | 52.7 µM (inactive) | 28.6 µM (inactive) | 50.6 µM (inactive) | 86.1 µM (inactive) | > 100 µM (inactive) | 79.6 µM (inactive) | – | 24.7 µM (inactive) | 69.5 µM (inactive) | 37.6 µM (inactive) | 58.7 µM (inactive) | – | 32.6 µM (inactive) | 15.8 µM (inactive) | 18.3 µM (inactive) | 18.7 µM (inactive) |
| CCOC(=O)/C=C(\C(=O)OCC)n1ccc(=O)n(CC(=O)OCC)c1=O | 1.82 µM (inactive) | 11.7 µM (inactive) | 17.3 µM (inactive) | 15.1 µM (inactive) | 6.12 µM (inactive) | 5.85 µM (inactive) | 5.96 µM (inactive) | 2.48 µM (inactive) | 6.52 µM (inactive) | 9.57 µM (inactive) | – | 16.6 µM (inactive) | 4.84 µM (inactive) | 11.6 µM (inactive) | 7.36 µM (inactive) | 0.592 µM (active) | 6.59 µM (inactive) | 0.495 µM (active) | 6.82 µM (inactive) | 1.68 µM (inactive) |
| COC(=O)C1=C(C(=O)OC)C2CCC1CC2=O (stereo unspecified) | > 100 µM (inactive) | > 100 µM (inactive) | > 100 µM (inactive) | 65.6 µM (inactive) | > 100 µM (inactive) | > 100 µM (inactive) | > 100 µM (inactive) | > 100 µM (inactive) | > 100 µM (inactive) | > 100 µM (inactive) | > 100 µM (inactive) | > 100 µM (inactive) | > 100 µM (inactive) | > 100 µM (inactive) | > 100 µM (inactive) | 31.3 µM (inactive) | > 100 µM (inactive) | – | > 100 µM (inactive) | 49 µM (inactive) |
| Cc1ccc(C(=O)Nc2ccc(S(=O)(=O)O)c3cc(S(=O)(=O)O)cc(S(=O)(=O)O)c23)cc1NC(=O)Nc1cc(C(=O)Nc2ccc(S(=O)(=O)O)c3cc(S(=O)(=O)O)cc(S(=O)(=O)O)c23)ccc1C | > 87.5 µM (inactive) | > 87.5 µM (inactive) | > 87.5 µM (inactive) | – | > 87.5 µM (inactive) | > 87.5 µM (inactive) | > 87.5 µM (inactive) | > 87.5 µM (inactive) | > 87.5 µM (inactive) | – | > 87.5 µM (inactive) | – | > 87.5 µM (inactive) | > 87.5 µM (inactive) | > 87.5 µM (inactive) | > 87.5 µM (inactive) | – | > 87.5 µM (inactive) | > 87.5 µM (inactive) | > 87.5 µM (inactive) |
| COC(=O)[C@]1(C)CCC[C@]2(C)[C@@H](CCC(=O)C(C)C)[C@]3(C=O)O[C@@H]3C[C@H]21 | 32.4 µM (inactive) | 24.7 µM (inactive) | 39.4 µM (inactive) | 34.3 µM (inactive) | 52 µM (inactive) | 28.2 µM (inactive) | 23.6 µM (inactive) | 53.1 µM (inactive) | 60.1 µM (inactive) | 25.7 µM (inactive) | – | 74.6 µM (inactive) | 30.6 µM (inactive) | 37.9 µM (inactive) | 50.2 µM (inactive) | 32.2 µM (inactive) | 44.8 µM (inactive) | 40.1 µM (inactive) | – | 27.9 µM (inactive) |
| COC(=O)C(CC(C)C)NC(=O)C(C)NC(=O)C(Cc1ccc(OCc2ccccc2)cc1)NC(=O)C(COCc1ccccc1)NC(=O)OC(C)(C)C (stereo unspecified) (Boc-S(Bn)Y(Bn)AL-OMe; configuration not given here) | > 100 µM (inactive) | > 100 µM (inactive) | > 100 µM (inactive) | > 100 µM (inactive) | – | > 100 µM (inactive) | > 100 µM (inactive) | > 100 µM (inactive) | > 100 µM (inactive) | > 100 µM (inactive) | > 100 µM (inactive) | > 100 µM (inactive) | > 100 µM (inactive) | – | 96.6 µM (inactive) | – | > 100 µM (inactive) | 41.2 µM (inactive) | > 100 µM (inactive) | > 100 µM (inactive) |

From ChEMBL document CHEMBL1201862, “PubChem BioAssay data set” (2004)
